From ChEMBL document CHEMBL1649257, “Rapid detection of a point mutation in the parC gene associated with decreased susceptibility to fluoroquinolones in Mycoplasma bovis” (2009)

Key:
Assay type in all cases: functional
Mycoplasmopsis bovis [1] = assay: Antimicrobial activity against Mycoplasma bovis isolate 4241 harboring GyrA 83Phe and ParC 84Asn mutant by broth microdilution method
Mycoplasmopsis bovis [2] = assay: Antimicrobial activity against Mycoplasma bovis isolate 2E harboring GyrA 83Ser and ParC 84Asp mutant by broth microdilution method
Mycoplasmopsis bovis [3] = assay: Antimicrobial activity against Mycoplasma bovis isolate 3374 harboring GyrA 83Phe and ParC 84Asp mutant by broth microdilution method
Mycoplasmopsis bovis [4] = assay: Antimicrobial activity against Mycoplasma bovis isolate 3181 harboring GyrA 83Phe and ParC 84Asn mutant by broth microdilution method
Mycoplasmopsis bovis [5] = assay: Antimicrobial activity against Mycoplasma bovis isolate 330 harboring GyrA 83Ser and ParC 84Asp mutant by broth microdilution method
Mycoplasmopsis bovis [6] = assay: Antimicrobial activity against Mycoplasma bovis isolate 2670 harboring GyrA 83Ser and ParC 84Asp mutant by broth microdilution method
Mycoplasmopsis bovis [7] = assay: Antimicrobial activity against Mycoplasma bovis isolate 962 harboring GyrA 83Phe and ParC 84Asn mutant by broth microdilution method
Mycoplasmopsis bovis [8] = assay: Antimicrobial activity against Mycoplasma bovis isolate 4879 harboring GyrA 83Phe and ParC 84Asn mutant by broth microdilution method
Mycoplasmopsis bovis [9] = assay: Antimicrobial activity against Mycoplasma bovis isolate 5180 harboring GyrA 83Ser and ParC 84Asp mutant by broth microdilution method
Mycoplasmopsis bovis [10] = assay: Antimicrobial activity against Mycoplasma bovis isolate 2643 harboring GyrA 83Phe and ParC 84Asp mutant by broth microdilution method
Mycoplasmopsis bovis [11] = assay: Antimicrobial activity against Mycoplasma bovis isolate 1972 harboring GyrA 83Phe and ParC 84Asn mutant by broth microdilution method
Mycoplasmopsis bovis [12] = assay: Antimicrobial activity against Mycoplasma bovis isolate K harboring GyrA 83Ser and ParC 84Asp mutant by broth microdilution method
Mycoplasmopsis bovis [13] = assay: Antimicrobial activity against Mycoplasma bovis isolate 5848 harboring GyrA 83Phe and ParC 84Asp mutant by broth microdilution method
Mycoplasmopsis bovis [14] = assay: Antimicrobial activity against Mycoplasma bovis isolate PG45 harboring GyrA 83Ser and ParC 84Asp mutant by broth microdilution method
Mycoplasmopsis bovis [15] = assay: Antimicrobial activity against Mycoplasma bovis isolate 7910 harboring GyrA 83Ser and ParC 84Asp mutant by broth microdilution method
Mycoplasmopsis bovis [16] = assay: Antimicrobial activity against Mycoplasma bovis isolate 9603 harboring GyrA 83Ser and ParC 84Asp mutant by broth microdilution method
Mycoplasmopsis bovis [17] = assay: Antimicrobial activity against Mycoplasma bovis isolate 2458 harboring GyrA 83Phe and ParC 84Asp mutant by broth microdilution method
Mycoplasmopsis bovis [18] = assay: Antimicrobial activity against Mycoplasma bovis isolate 861 harboring GyrA 83Ser and ParC 84Asp mutant by broth microdilution method
Mycoplasmopsis bovis [19] = assay: Antimicrobial activity against Mycoplasma bovis isolate 4243 harboring GyrA 83Phe and ParC 84Asn mutant by broth microdilution method
Mycoplasmopsis bovis [20] = assay: Antimicrobial activity against Mycoplasma bovis isolate 9249 harboring GyrA 83Ser and ParC 84Asp mutant by broth microdilution method
Mycoplasmopsis bovis [21] = assay: Antimicrobial activity against Mycoplasma bovis isolate 77 harboring GyrA 83Phe and ParC 84Asp mutant by broth microdilution method
Mycoplasmopsis bovis [22] = assay: Antimicrobial activity against Mycoplasma bovis isolate 170 harboring GyrA 83Ser and ParC 84Asp mutant by broth microdilution method
Mycoplasmopsis bovis [23] = assay: Antimicrobial activity against Mycoplasma bovis isolate 7043 harboring GyrA 83Phe and ParC 84Asp mutant by broth microdilution method
Mycoplasmopsis bovis [24] = assay: Antimicrobial activity against Mycoplasma bovis isolate 111-2 harboring GyrA 83Ser and ParC 84Asp mutant by broth microdilution method
Mycoplasmopsis bovis [25] = assay: Antimicrobial activity against Mycoplasma bovis isolate 8830 harboring GyrA 83Phe and ParC 84Asn mutant by broth microdilution method
Mycoplasmopsis bovis [26] = assay: Antimicrobial activity against Mycoplasma bovis isolate 4925 harboring GyrA 83Ser and ParC 84Asn mutant by broth microdilution method
Mycoplasmopsis bovis [27] = assay: Antimicrobial activity against Mycoplasma bovis isolate 1416 harboring GyrA 83Phe and ParC 84Asp mutant by broth microdilution method
Mycoplasmopsis bovis [28] = assay: Antimicrobial activity against Mycoplasma bovis isolate 523 harboring GyrA 83Phe and ParC 84Asn mutant by broth microdilution method
Mycoplasmopsis bovis [29] = assay: Antimicrobial activity against Mycoplasma bovis isolate 6226 harboring GyrA 83Ser and ParC 84Asp mutant by broth microdilution method
Mycoplasmopsis bovis [30] = assay: Antimicrobial activity against Mycoplasma bovis isolate 3036 harboring GyrA 83Phe and ParC 84Asp mutant by broth microdilution method
Mycoplasmopsis bovis [31] = assay: Antimicrobial activity against Mycoplasma bovis isolate 9771 harboring GyrA 83Phe and ParC 84Asn mutant by broth microdilution method
Mycoplasmopsis bovis [32] = assay: Antimicrobial activity against Mycoplasma bovis isolate 1306 harboring GyrA 83Phe and ParC 84Asp mutant by broth microdilution method
Mycoplasmopsis bovis [33] = assay: Antimicrobial activity against Mycoplasma bovis isolate 2029 harboring GyrA 83Phe and ParC 84Asp mutant by broth microdilution method
Mycoplasmopsis bovis [34] = assay: Antimicrobial activity against Mycoplasma bovis isolate 8934 harboring GyrA 83Ser and ParC 84Asp mutant by broth microdilution method
Mycoplasmopsis bovis [35] = assay: Antimicrobial activity against Mycoplasma bovis isolate 3179 harboring GyrA 83Phe and ParC 84Asp mutant by broth microdilution method
Mycoplasmopsis bovis [36] = assay: Antimicrobial activity against Mycoplasma bovis isolate 6099 harboring GyrA 83Ser and ParC 84Asp mutant by broth microdilution method
Mycoplasmopsis bovis [37] = assay: Antimicrobial activity against Mycoplasma bovis isolate H harboring GyrA 83Ser and ParC 84Asp mutant by broth microdilution method
Mycoplasmopsis bovis [38] = assay: Antimicrobial activity against Mycoplasma bovis isolate 476-2 harboring GyrA 83Ser and ParC 84Asp mutant by broth microdilution method
Mycoplasmopsis bovis [39] = assay: Antimicrobial activity against Mycoplasma bovis isolate 3222 harboring GyrA 83Ser and ParC 84Asp mutant by broth microdilution method
Mycoplasmopsis bovis [40] = assay: Antimicrobial activity against Mycoplasma bovis isolate 1665 harboring GyrA 83Phe and ParC 84Asn mutant by broth microdilution method
Mycoplasmopsis bovis [41] = assay: Antimicrobial activity against Mycoplasma bovis isolate 8998 harboring GyrA 83Ser and ParC 84Asp mutant by broth microdilution method
Mycoplasmopsis bovis [42] = assay: Antimicrobial activity against Mycoplasma bovis isolate 2D harboring GyrA 83Ser and ParC 84Asp mutant by broth microdilution method
Mycoplasmopsis bovis [43] = assay: Antimicrobial activity against Mycoplasma bovis isolate 4554 harboring GyrA 83Ser and ParC 84Asp mutant by broth microdilution method

Measured: MIC

CCN1CCN(c2cc3c(cc2F)c(=O)c(C(=O)O)cn3C2CC2)CC1 [ENROFLOXACIN]
0.32 µg/mL: Mycoplasmopsis bovis [15] | Mycoplasmopsis bovis [23] | Mycoplasmopsis bovis [27] | Mycoplasmopsis bovis [29] | Mycoplasmopsis bovis [33] | Mycoplasmopsis bovis [34]
5 µg/mL: Mycoplasmopsis bovis [7] | Mycoplasmopsis bovis [8] | Mycoplasmopsis bovis [25] | Mycoplasmopsis bovis [31]
2.5 µg/mL: Mycoplasmopsis bovis [1] | Mycoplasmopsis bovis [4] | Mycoplasmopsis bovis [11] | Mycoplasmopsis bovis [19] | Mycoplasmopsis bovis [26] | Mycoplasmopsis bovis [28] | Mycoplasmopsis bovis [40]
0.08 µg/mL: Mycoplasmopsis bovis [5] | Mycoplasmopsis bovis [6] | Mycoplasmopsis bovis [18] | Mycoplasmopsis bovis [41]
1.25 µg/mL: Mycoplasmopsis bovis [3] | Mycoplasmopsis bovis [10] | Mycoplasmopsis bovis [13] | Mycoplasmopsis bovis [17] | Mycoplasmopsis bovis [30] | Mycoplasmopsis bovis [32]
0.63 µg/mL: Mycoplasmopsis bovis [21] | Mycoplasmopsis bovis [22] | Mycoplasmopsis bovis [35]
0.16 µg/mL: all other assays above
